In PubChem BioAssay AID2060890 (Molecular Pharmacology Branch, DTP, NCI, 2025):
Values joined by “and” are separate entries in the source; they are usually repeats but may differ in a detail not shown here. Identical values can stand only once. Blank lines part the entries; values can stand above or below the molecule they belong to.

System: LG0703-F948-PDC complex spheroid viability
Assay: Anticancer human tumor LG0703-F948-PDC patient-derived lung adenocarcinoma cell line growth inhibition [RAS]
Settings: for viability, T/C: stronger effect = lower value
In short: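 Multi-cell-type spheroids: tumor cells plus HUVEC endothelial cells and mesenchymal stem cells. RAS-pathway inhibitors were combined with targeted agents, each dosed in half-log steps down from clinical Cmax, or from 10 microM when Cmax was unknown.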

[1] = curve of first compound, second compound 0.00316 µM
[2] = curve of first compound, second compound 0.01 µM
[3] = curve of first compound, second compound 0.0316 µM
[4] = curve of first compound, second compound 0.1 µM
[5] = curve of first compound, second compound 0.316 µM
[6] = curve of first compound, second compound 1 µM
[7] = second compound 0.00316 µM, first compound 0.00316 µM
[8] = second compound 0.00316 µM, first compound 0.01 µM
[9] = second compound 0.00316 µM, first compound 0.0316 µM
[10] = second compound 0.00316 µM, first compound 0.1 µM
[11] = second compound 0.01 µM, first compound 0.00316 µM
[12] = second compound 0.01 µM, first compound 0.01 µM
[13] = second compound 0.01 µM, first compound 0.0316 µM
[14] = second compound 0.01 µM, first compound 0.1 µM
[15] = second compound 0.0316 µM, first compound 0.00316 µM
[16] = second compound 0.0316 µM, first compound 0.01 µM
[17] = second compound 0.0316 µM, first compound 0.0316 µM
[18] = second compound 0.0316 µM, first compound 0.1 µM
[19] = second compound 0.1 µM, first compound 0.00316 µM
[20] = second compound 0.1 µM, first compound 0.01 µM
[21] = second compound 0.1 µM, first compound 0.0316 µM
[22] = second compound 0.1 µM, first compound 0.1 µM
[23] = second compound 0.316 µM, first compound 0.00316 µM
[24] = second compound 0.316 µM, first compound 0.01 µM
[25] = second compound 0.316 µM, first compound 0.0316 µM
[26] = second compound 0.316 µM, first compound 0.1 µM
[27] = second compound 1 µM, first compound 0.00316 µM
[28] = second compound 1 µM, first compound 0.01 µM
[29] = second compound 1 µM, first compound 0.0316 µM
[30] = second compound 1 µM, first compound 0.1 µM
[31] = second compound 0.0316 µM, first compound 0.316 µM
[32] = second compound 0.0316 µM, first compound 1 µM
[33] = second compound 0.1 µM, first compound 0.316 µM
[34] = second compound 0.1 µM, first compound 1 µM
[35] = second compound 0.316 µM, first compound 0.316 µM
[36] = second compound 0.316 µM, first compound 1 µM
[37] = second compound 1 µM, first compound 0.316 µM
[38] = second compound 1 µM, first compound 1 µM
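Further: spheroids exposed to agents for 7 days.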
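Wherever viability, T/C is given: 100% = DMSO vehicle wells.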

- IC50 [1]: 2.63 nM
- IC50 [2]: 4.04 nM
- IC50 [3]: 3.57 nM
- IC50 [4]: 3.98 nM
- IC50 [5]: 4.22 nM
- IC50 [6]: 4.58 nM
SMILES: CC(C)n1nc(-c2ccc3oc(N)nc3c2)c2c(N)ncnc21 + C=CC(=O)N1CCN(c2nc(OCC3CCCN3C)nc3c(F)c(-c4nc(N)cc(C)c4C(F)(F)F)c(Cl)cc23)C(C)C1
- viability, T/C (second compound 0.00316 µM, first compound 0.000316 µM): 90.6%
- viability, T/C (second compound 0.00316 µM, first compound 0.001 µM): 65.3%
- viability, T/C [7]: 49.1%
- viability, T/C [8]: 29.7%
- viability, T/C [9]: 12.6%
- viability, T/C [10]: 7.5%
- viability, T/C (second compound 0.01 µM, first compound 0.000316 µM): 92.8%
- viability, T/C (second compound 0.01 µM, first compound 0.001 µM): 79.9%
- viability, T/C [11]: 55.6%
- viability, T/C [12]: 29.7%
- viability, T/C [13]: 12.3%
- viability, T/C [14]: 7.9%
- viability, T/C (second compound 0.0316 µM, first compound 0.000316 µM): 94.8%
- viability, T/C (second compound 0.0316 µM, first compound 0.001 µM): 76%
- viability, T/C [15]: 52.3%
- viability, T/C [16]: 30.9%
- viability, T/C [17]: 12.8%
- viability, T/C [18]: 6.67%
- viability, T/C (second compound 0.1 µM, first compound 0.000316 µM): 106%
- viability, T/C (second compound 0.1 µM, first compound 0.001 µM): 78.3%
- viability, T/C [19]: 57.6%
- viability, T/C [20]: 31.4%
- viability, T/C [21]: 14.3%
- viability, T/C [22]: 8.14%
- viability, T/C (second compound 0.316 µM, first compound 0.000316 µM): 103%
- viability, T/C (second compound 0.316 µM, first compound 0.001 µM): 79.3%
- viability, T/C [23]: 59%
- viability, T/C [24]: 31.5%
- viability, T/C [25]: 12.9%
- viability, T/C [26]: 7.55%
- viability, T/C (second compound 1 µM, first compound 0.000316 µM): 114%
- viability, T/C (second compound 1 µM, first compound 0.001 µM): 84.8%
- viability, T/C [27]: 59.2%
- viability, T/C [28]: 34.3%
- viability, T/C [29]: 13.9%
- viability, T/C [30]: 6.36%

- IC50 [3]: 11 nM
- IC50 [4]: 9.22 nM
- IC50 [5]: 6.02 nM
- IC50 [6]: 4.22 nM
- IC50 (curve of first compound, second compound 3.16 µM): < 3.16 nM
- IC50 (curve of first compound, second compound 10 µM): < 3.16 nM
SMILES: C=CC(=O)Nc1cc(Nc2nccc(-c3cn(C)c4ccccc34)n2)c(OC)cc1N(C)CCN(C)C + C#Cc1c(F)ccc2cc(O)cc(-c3ncc4c(N5CC6CCC(C5)N6)nc(OCC56CCCN5CC(F)C6)nc4c3F)c12
- viability, T/C [15]: 96.5%
- viability, T/C [16]: 53%
- viability, T/C [17]: 17.6%
- viability, T/C [18]: 12.5%
- viability, T/C [31]: 11.1%
- viability, T/C [32]: 8.76%
- viability, T/C [19]: 84.3%
- viability, T/C [20]: 47.4%
- viability, T/C [21]: 15.8%
- viability, T/C [22]: 14%
- viability, T/C [33]: 13.8%
- viability, T/C [34]: 8.56%
- viability, T/C [23]: 69.2%
- viability, T/C [24]: 34.9%
- viability, T/C [25]: 15.6%
- viability, T/C [26]: 11.2%
- viability, T/C [35]: 10.1%
- viability, T/C [36]: 8.31%
- viability, T/C [27]: 56.2%
- viability, T/C [28]: 31.5%
- viability, T/C [29]: 14.2%
- viability, T/C [30]: 10.2%
- viability, T/C [37]: 9.15%
- viability, T/C [38]: 7.05%
- viability, T/C (second compound 3.16 µM, first compound 0.00316 µM): 48.8%
- viability, T/C (second compound 3.16 µM, first compound 0.01 µM): 25%
- viability, T/C (second compound 3.16 µM, first compound 0.0316 µM): 10.1%
- viability, T/C (second compound 3.16 µM, first compound 0.1 µM): 11.4%
- viability, T/C (second compound 3.16 µM, first compound 0.316 µM): 8.78%
- viability, T/C (second compound 3.16 µM, first compound 1 µM): 6.8%
- viability, T/C (second compound 10 µM, first compound 0.00316 µM): 33.5%
- viability, T/C (second compound 10 µM, first compound 0.01 µM): 10.2%
- viability, T/C (second compound 10 µM, first compound 0.0316 µM): 10.5%
- viability, T/C (second compound 10 µM, first compound 0.1 µM): 7.37%
- viability, T/C (second compound 10 µM, first compound 0.316 µM): 6.33%
- viability, T/C (second compound 10 µM, first compound 1 µM): 4.43%

SMILES: Nc1ccn(C2OC(CO)C(O)C2(F)F)c(=O)n1 (stereo unspecified)
- viability, T/C (compound 0.00316 µM): 73.4% [middle of 4 runs]
- viability, T/C (compound 0.0316 µM): 38.3% [middle of 4 runs]
- viability, T/C (compound 0.1 µM): 37.3% [middle of 4 runs]
- viability, T/C (compound 0.316 µM): 37.3% [middle of 4 runs]
- viability, T/C (compound 1 µM): 32.1% [middle of 4 runs]

- IC50 [1]: 4.92 nM
- IC50 [2]: 4.93 nM
- IC50 [3]: 5.48 nM
- IC50 [4]: 5.32 nM
- IC50 [5]: 5.96 nM
- IC50 [6]: 5.85 nM
SMILES: Nc1ccn(C2OC(CO)C(O)C2(F)F)c(=O)n1 (stereo unspecified) + C=CC(=O)N1CCN(c2nc(OCC3CCCN3C)nc3c(F)c(-c4nc(N)cc(C)c4C(F)(F)F)c(Cl)cc23)C(C)C1
- viability, T/C [7]: 57.6%
- viability, T/C [8]: 38.4%
- viability, T/C [9]: 27.3%
- viability, T/C [10]: 28.2%
- viability, T/C (second compound 0.00316 µM, first compound 0.316 µM): 29.4%
- viability, T/C (second compound 0.00316 µM, first compound 1 µM): 6.7%
- viability, T/C [11]: 58.7%
- viability, T/C [12]: 36.9%
- viability, T/C [13]: 25.1%
- viability, T/C [14]: 25.1%
- viability, T/C (second compound 0.01 µM, first compound 0.316 µM): 24.6%
- viability, T/C (second compound 0.01 µM, first compound 1 µM): 21.7%
- viability, T/C [15]: 61.6%
- viability, T/C [16]: 36.7%
- viability, T/C [17]: 30.1%
- viability, T/C [18]: 24%
- viability, T/C [31]: 24.1%
- viability, T/C [32]: 23.3%
- viability, T/C [19]: 62.1%
- viability, T/C [20]: 35.4%
- viability, T/C [21]: 26.8%
- viability, T/C [22]: 26.3%
- viability, T/C [33]: 26.8%
- viability, T/C [34]: 22.7%
- viability, T/C [23]: 74.2%
- viability, T/C [24]: 30%
- viability, T/C [25]: 29.9%
- viability, T/C [26]: 25.3%
- viability, T/C [35]: 27.1%
- viability, T/C [36]: 29.1%
- viability, T/C [27]: 63%
- viability, T/C [28]: 38.3%
- viability, T/C [29]: 29%
- viability, T/C [30]: 30.1%
- viability, T/C [37]: 25.2%
- viability, T/C [38]: 21.4%

- IC50 (compound alone, run of 09/09/2024): > 10000 nM and 9290 nM
SMILES: C#Cc1c(F)ccc2cc(O)cc(-c3ncc4c(N5CC6CCC(C5)N6)nc(OCC56CCCN5CC(F)C6)nc4c3F)c12 (stereo unspecified)
- viability, T/C (compound 0.1 µM): 98.8% [middle of 8 runs]
- viability, T/C (compound 0.316 µM): 85.7% [middle of 8 runs]
- viability, T/C (compound 3.16 µM): 61% [middle of 8 runs]
- viability, T/C (compound 10 µM): 56.6% [middle of 8 runs]
